What was measured:
[1] = tested on: myocardial infarction in mice; experiment: Mouse model of permanent coronary artery occlusion, 28 days; format: in vivo
Method: Permanent coronary artery occlusion was carried out in mice using a ligature placed around the left anterior descending artery to induce myocardial infarction. Treatment with orally-administered Compound 1 (0.3 and 3 mg/kg; QD) or dosing solution without compound (QD, referred to as vehicle) was initiated 24 hours following myocardial infarction. Mice subjected to thoracotomy but not infarcted were included as surgical “sham” controls. Mice were evaluated 28 days following myocardial infarction to assess structure/function relationships. Hearts were removed from mice for histological processing to measure left ventricular dimensions, infarct areas and infarct collagen composition.
The effect of Compound 1 on left ventricle and infarct scar remodeling was evaluated in a mouse model of permanent coronary artery occlusion. MI was created by permanently ligating the left anterior descending artery with a surgical suture. Treatments (QD, PO) were initiated 24 hours after MI and were continued for 28 days. Treatments consisted of suspension vehicle and Compound 1 at 0.3 mg/kg and 3 mg/kg. A cohort of mice that were subjected to the procedure but were not infarcted were included as a “sham operated” surgical control group. At the end of 28 days of treatment, the hearts were removed for histological evaluation of left ventricle structure and scar structure.
This is a model of ischemic heart disease. Infarct size was measured within the left ventricle (LV) and reported as a percentage of the total left ventricle cross sectional area.

[2] = tested on: myocardial infarction in mice; experiment: Mouse permanent coronary artery occlusion, early infarct composition 3 days post MI; format: in vivo; details: 3 mg/kg PO QD
Method: In order to understand early changes in the infarct extracellular matrix, collagen remodeling enzymes and their endogenous inhibitors, the effects of 3 mg/kg Compound 1 treatment on the myocardial infarct composition in mice were evaluated 3 days post myocardial infarction. Myocardial infarction was created by permanently ligating the left anterior descending artery with a surgical suture. Treatment (QD, PO; suspension vehicle or Compound 1 at 3 mg/kg) was initiated 24 hours after MI and were continued to 3 days post MI. On day 3, mice received a final dose of treatment and the hearts were removed 2 hours post treatment (i.e., 74 hours after MI) for histological analysis.

[3] = tested on: angiotensin II-induced cardiac fibrosis in mice; experiment: Angiotensin II-induced cardiac fibrosis mouse model; format: in vivo; details: 3 mg/kg QD for 3 weeks, P<0.001
Method: To assess myocardial fibrosis in the setting of non-ischemic heart disease with hypertension, mice were challenged with angiotensin II to stimulate cardiac hypertrophy and left ventricular fibrosis. Mice were administered angiotensin II using subcutaneously implanted osmotic mini-pumps (˜2 mg/kg/day). A separate group of mice were implanted with subcutaneous pumps containing saline (surgical “sham” group); these mice served as control for pump implantation surgery. Mice were treated with Compound 1 (3 mg/kg, QD) or dosing solution without compound (QD, referred to as vehicle) starting 7 days following pump implantation. In this model, cardiac fibrosis development reaches its peak and without treatment, will remain fibrotic at this high level until the angII is depleted (˜4 weeks post implantation). Interventional treatment with Compound 1 to regress cardiac fibrosis was given to mice for 3 weeks. At the end of treatment phase, hearts were removed from animals and evaluated for collagen levels/fibrosis by cross-sectional histology of the hearts.
Myocardial fibrosis was evaluated in the mouse with continuous angiotensin II challenge administered by subcutaneous osmotic mini-pump. This is a model of non-ischemic heart disease.
The effect of Compound 1 on regression of established cardiac fibrosis was evaluated in the angiotensin II-induced cardiac fibrosis mouse model. […]

[4] = target: T1, Rat FPR1 (Rattus norvegicus, UniProt D4A7Q2); experiment: cAMP inhibition, rat FPR1 CHO cells; format: cell-based
T1 construct: expressed in transfected cells; host or cells: CHO
T1 sequence (D4A7Q2 1-355): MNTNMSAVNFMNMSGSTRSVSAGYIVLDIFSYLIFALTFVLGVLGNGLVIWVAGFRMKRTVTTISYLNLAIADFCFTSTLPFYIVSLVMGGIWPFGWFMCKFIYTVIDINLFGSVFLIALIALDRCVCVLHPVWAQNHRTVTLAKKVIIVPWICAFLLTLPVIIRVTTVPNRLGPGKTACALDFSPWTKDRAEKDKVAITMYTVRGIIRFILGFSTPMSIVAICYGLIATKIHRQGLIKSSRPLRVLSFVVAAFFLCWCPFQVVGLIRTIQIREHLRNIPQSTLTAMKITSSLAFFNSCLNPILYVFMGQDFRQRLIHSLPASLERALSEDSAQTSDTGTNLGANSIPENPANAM

[5] = tested on: DOCA-challenged cardiac fibrosis in mice; format: in vivo
Method: In a second model of non-ischemic heart disease with hypertension, mice were subjected to uni-nephrectomy and challenged with deoxycorticosterone acetate (DOCA) and saline drinking water to stimulate cardiac hypertrophy and left ventricular fibrosis. Mice were administered DOCA using subcutaneously implanted pellets (50 mg). A separate group of mice were subjected to surgery via creation of subcutaneous pocket (surgical “sham” group); these mice served as control for pellet implantation surgery. Mice were treated with Compound 1 (1 mg/kg, QD) or dosing solution (QD, referred to as vehicle) 24 hours after surgery. Treatment with Compound 1 was given to mice for 3 weeks. At the end of treatment phase, hearts were removed from animals and evaluated for collagen levels/fibrosis by cross-sectional histology of the hearts.
Myocardial fibrosis was evaluated in the mouse with continuous DOCA challenge administered by subcutaneous release pellet. The model increases systemic blood pressure and tissue inflammation in target tissues such as the myocardium via agonism of the mineralocorticoid receptor by DOCA. It also involves surgical uni-nephrectomy and supplementation with saline in the drinking water to further drive disease pathology. This is a model of non-ischemic heart disease.
The effect of Compound 1 on cardiac fibrosis development in the DOCA-salt mouse model was evaluated histologically. […]

COc1cc(F)c([C@@H]2CNC(=O)[C@H]2NC(=O)Nc2ccccc2)c(F)c1 [Compound 1, 1-((3S,4R)-4-(2,6-difluoro-4-methoxyphenyl)-2-oxopyrrolidin-3-yl)-3-phenylurea]
infarct wall thickness, % of mean thickness of sham ([1]; 0.3 mg/kg PO QD, 28 days): 61%
reduction of LV chamber area vs. vehicle ([1]; 0.3 mg/kg PO QD, 28 days): 26%
infarct wall thickness, % of mean thickness of sham ([1]; 3 mg/kg PO QD, 28 days): 67%
reduction of LV chamber area vs. vehicle ([1]; 3 mg/kg PO QD, 28 days (trend)): 24%
reduction in LV anterior wall infarct size vs. vehicle ([1]; 3 mg/kg PO QD, 28 days, started 24 h after MI, P<0.01): 55%
wall thickness difference vs. vehicle ([1]; higher dose (3 mg/kg) PO QD, 28 days, P<0.05): 59%
MMP-2 in infarcted myocardium vs. vehicle [2]: trend towards less MMP-2
TIMP-4 in infarcted tissue vs. vehicle [2]: No differences
average infarct area vs. vehicle [2]: similar
collagen content within the infarct, increase vs. vehicle ([2]; P<0.05): 1.7 fold
reduction of left ventricular fibrosis vs. vehicle treatment group ([3]; started 7 days after pump implantation): 90%
reduction of fibrosis relative to 7-day baseline group [3]: 89%
EC50 [4]: 0.72 µM
reduction of left ventricular fibrosis vs. vehicle treatment group ([5]; 1 mg/kg QD for 3 weeks, started 24 h after surgery, P<0.01): 50%
tolerability during in-life phase ([5]; mouse, in vivo, 1 mg/kg): well tolerated

— patent US20200069644A1, “NOVEL USE OF A FORMYL PEPTIDE RECEPTOR 2/ LIPOXIN A4 RECEPTOR (FPR2/ALX) AGONIST FOR TREATMENT OF HEART FAILURE” (BRISTOL- MYERS SQUIBB COMPANY, priority 2017, published 2020)
